Laboratory results as given in EP1769804B1, “hPTH(1-34) for use in preventing or reducing the incidence or severity of vertebral and / or non vertebral fracture in a male human” (priority 1998, dated 2012).

Tests used:
[1] = system: ovariectomized cynomolgus primates; experiment: Bone mass by DXA and pQCT in the primate study; format: in vivo, Macaca fascicularis
Excerpt: (§1) All animals were euthanized after 18 months.

post-menopausal women = experiment: Clinical trial: BMC, BMD and bone area by dual energy absorptiometry (DEXA); format: in vivo, Humans
Method: The effect of PTH on bone mineral content (BMC), bone mineral density (BMD), and bone area were determined by dual energy absorptiometry (DEXA), and the results are reported in Tables 12-14. PTH administration caused apparent increases in BMC at the patient's lumbar spine, femur and hip, wrist, and throughout the patient's whole body (Table 12). Treatment with PTH caused significant increases in the patient's BMD at the lumbar spine, femur and hip (Table 13). The increases at the lumbar spine, femur and hip were statistically significant with p<0.001 (Table 13). […] The increases were statistically significant for the lumbar spine and hip neck (Table 14).

[2] = system: ovariectomized cynomolgus primates; experiment: Serum and urine measures in the primate study; format: in vivo, Macaca fascicularis
Excerpt: as §1

[3] = compared to ovariectomized, 24 hours after injection

teriparatide [rhPTH(1-34)]
increase of whole body bone mineral content (BMC) compared to baseline ([1]; 18 months, DXA): up to 6%
overall skeletal bone mass, expressed as total body BMC ([1]; Fig. 1): increased significantly
proximal tibia BMC and BMD ([1]; compared to ovariectomized controls): increased BMC and BMD
BMD of the midshaft or distal radius ([1]; pQCT): did not alter
increase of cross-sectional area of the midshaft ([1]; radius midshaft, PTH5 group): 7%
bone area, endpoint % change (SD) from baseline, Femur/Hip Intertrochanter (post-menopausal women; PTH-20): 1.01 (4.99) %
bone area, endpoint % change (SD) from baseline, Femur/Hip Neck (post-menopausal women; PTH-20): 0.27 (4.91) %
bone area, endpoint % change (SD) from baseline, Femur/Hip Total (post-menopausal women; PTH-20): 0.84 (3.16) %
bone area, endpoint % change (SD) from baseline, Femur/Hip Trochanter (post-menopausal women; PTH-20): 1.99 (12.16) %
bone area, endpoint % change (SD) from baseline, Femur/Hip Ward's triangle (post-menopausal women; PTH-20): 1.13 (7.34) %
bone area, endpoint % change (SD) from baseline, Lumbar spine (post-menopausal women; PTH-20): 2.52 (3.52) %
bone area, endpoint % change (SD) from baseline, Wrist 1/3 radius (post-menopausal women; PTH-20): 0.52 (3.40) %
bone area, endpoint % change (SD) from baseline, Wrist Ultradistal (post-menopausal women; PTH-20): -0.25 (6.00) %
bone mineral content, endpoint % change (SD) from baseline, Femur/Hip Intertrochanter (post-menopausal women; PTH-20): 3.59 (7.32) %
bone mineral content, endpoint % change (SD) from baseline, Femur/Hip Neck (post-menopausal women; PTH-20): 2.99 (7.26) %
bone mineral content, endpoint % change (SD) from baseline, Femur/Hip Total (post-menopausal women; PTH-20): 3.50 (6.26) %
bone mineral content, endpoint % change (SD) from baseline, Femur/Hip Trochanter (post-menopausal women; PTH-20): 5.68 (15.58) %
bone mineral content, endpoint % change (SD) from baseline, Femur/Hip Ward's triangle (post-menopausal women; PTH-20): 5.36 (14.78) %
bone mineral content, endpoint % change (SD) from baseline, Lumbar spine (post-menopausal women; PTH-20): 11.85 (8.83) %
bone mineral content, endpoint % change (SD) from baseline, Whole body (post-menopausal women; PTH-20): 1.30 (4.48) %
bone mineral content, endpoint % change (SD) from baseline, Wrist 1/3 radius (post-menopausal women; PTH-20): -1.37 (4.51) %
bone mineral content, endpoint % change (SD) from baseline, Wrist Ultradistal (post-menopausal women; PTH-20): -0.25 (6.53) %
bone mineral density, endpoint % change (SD) from baseline, Femur/Hip Intertrochanter (post-menopausal women; PTH-20): 2.62 (5.52) %
bone mineral density, endpoint % change (SD) from baseline, Femur/Hip Neck (post-menopausal women; PTH-20): 2.79 (5.72) %
bone mineral density, endpoint % change (SD) from baseline, Femur/Hip Total (post-menopausal women; PTH-20): 2.58 (4.88) %
bone mineral density, endpoint % change (SD) from baseline, Femur/Hip Trochanter (post-menopausal women; PTH-20): 3.50 (6.81) %
bone mineral density, endpoint % change (SD) from baseline, Femur/Hip Ward's triangle (post-menopausal women; PTH-20): 4.19 (11.93) %
bone mineral density, endpoint % change (SD) from baseline, Lumbar spine (post-menopausal women; PTH-20): 9.70 (7.41) %
bone mineral density, endpoint % change (SD) from baseline, Wrist 1/3 radius (post-menopausal women; PTH-20): -1.94 (4.07) %
bone mineral density, endpoint % change (SD) from baseline, Wrist Ultradistal (post-menopausal women; PTH-20): -0.05 (7.14) %
bone area, endpoint % change (SD) from baseline, Femur/Hip Intertrochanter (post-menopausal women; PTH-40): 1.01 (4.89) %
bone area, endpoint % change (SD) from baseline, Femur/Hip Neck (post-menopausal women; PTH-40): 0.81 (5.56) %
bone area, endpoint % change (SD) from baseline, Femur/Hip Total (post-menopausal women; PTH-40): 1.05 (2.98) %
bone area, endpoint % change (SD) from baseline, Femur/Hip Trochanter (post-menopausal women; PTH-40): 1.92 (11.30) %
bone area, endpoint % change (SD) from baseline, Femur/Hip Ward's triangle (post-menopausal women; PTH-40): 0.99 (8.06) %
bone area, endpoint % change (SD) from baseline, Lumbar spine (post-menopausal women; PTH-40): 3.34 (3.72) %
bone area, endpoint % change (SD) from baseline, Wrist 1/3 radius (post-menopausal women; PTH-40): 0.01 (4.42) %
bone area, endpoint % change (SD) from baseline, Wrist Ultradistal (post-menopausal women; PTH-40): -0.39 (4.80) %
bone mineral content, endpoint % change (SD) from baseline, Femur/Hip Intertrochanter (post-menopausal women; PTH-40): 4.99 (7.79) %
bone mineral content, endpoint % change (SD) from baseline, Femur/Hip Neck (post-menopausal women; PTH-40): 5.80 (8.71) %
bone mineral content, endpoint % change (SD) from baseline, Femur/Hip Total (post-menopausal women; PTH-40): 4.78 (6.70) %
bone mineral content, endpoint % change (SD) from baseline, Femur/Hip Trochanter (post-menopausal women; PTH-40): 6.53 (15.33) %
bone mineral content, endpoint % change (SD) from baseline, Femur/Hip Ward's triangle (post-menopausal women; PTH-40): 8.86 (17.02) %
bone mineral content, endpoint % change (SD) from baseline, Lumbar spine (post-menopausal women; PTH-40): 16.62 (11.1) %
bone mineral content, endpoint % change (SD) from baseline, Whole body (post-menopausal women; PTH-40): 2.28 (5.44) %
bone mineral content, endpoint % change (SD) from baseline, Wrist 1/3 radius (post-menopausal women; PTH-40): -3.04 (6.09) %
bone mineral content, endpoint % change (SD) from baseline, Wrist Ultradistal (post-menopausal women; PTH-40): -1.88 (7.97) %
bone mineral density, endpoint % change (SD) from baseline, Femur/Hip Intertrochanter (post-menopausal women; PTH-40): 3.98 (5.96) %
bone mineral density, endpoint % change (SD) from baseline, Femur/Hip Neck (post-menopausal women; PTH-40): 5.06 (6.73) %
bone mineral density, endpoint % change (SD) from baseline, Femur/Hip Total (post-menopausal women; PTH-40): 3.60 (5.42) %
bone mineral density, endpoint % change (SD) from baseline, Femur/Hip Trochanter (post-menopausal women; PTH-40): 4.40 (7.45) %
bone mineral density, endpoint % change (SD) from baseline, Femur/Hip Ward's triangle (post-menopausal women; PTH-40): 7.85 (13.24) %
bone mineral density, endpoint % change (SD) from baseline, Lumbar spine (post-menopausal women; PTH-40): 13.7 (9.69) %
bone mineral density, endpoint % change (SD) from baseline, Wrist 1/3 radius (post-menopausal women; PTH-40): -3.17 (4.62) %
bone mineral density, endpoint % change (SD) from baseline, Wrist Ultradistal (post-menopausal women; PTH-40): -1.76 (7.20) %
serum total alkaline phosphatase (ALP) and osteocalcin ([2]; bone formation markers): restored levels back to sham values
1,25-dihydroxyvitamin D [2, 3]: higher
endogenous PTH [2, 3]: lower
serum phosphate [2, 3]: lower
urinary cAMP [2, 3]: higher
Urinary C-telopeptide (CrossLaps) excretion ([2]; marker of bone resorption, compared to ovariectomized controls): not altered
